Columns and labels:
Assay type in all cases: cell-based, human
[1] = test system: P21 (CDKN1A) gene expression in PE/CA-PJ49; experiment: Real-time PCR of CDKN1A (P21) gene, tumor cells; settings: 24 h, reference gene HPRT, 2^-ΔΔCt vs control
Description: (§1) In order to isolate of total RNA from treated or untreated cells was used TRIzol reagent (Invitrogen)-a monophasic solution of phenol and guanidine isothiocyanate. During the isolation phases, the TRIzol reagent maintains RNA integrity, while disrupting cells and dissolving cell components. The addition of chloroform followed by centrifugation ensures the separation phase of the solution into an aqueous phase and an organic phase. RNA remains in the aqueous phase and is recovered by isopropanol precipitation. The RNA pellet washed once with 75% ice-cold ethanol and entrifuged at 10,000× g for 5 min at 4 °C. The […] is redissolved in nuclease-free water and incubating in a 60 °C water bath for 10 min. The concentration of isolated RNA was assessed using a NanoDrop spectrophotometer ([…], Montchanin, DE, USA). RNA purity was determined by A260/A280 ratios (an […] ratio as close as possible to 2 indicates the presence of highly purified RNA). Reverse transcription of messenger RNA molecules was performed using the High-capacity cDNA Reverse Transcription Kit from Applied Biosystems, using non-specific, randomic primers, following the manufacturer's instructions (Table 1). […] The obtained cDNA was stored at 4 °C and further used in the amplification reaction Real-Time PCR (RT-PCR). […] The samples were analyzed using the formula 2^-ΔΔCt.

[2] = test system: p21 protein (CIP1/CDKN1A) expression in PE/CA-PJ49; experiment: Total p21 protein ELISA in cell lysates, tumor cells; settings: 24 h; for n-fold p21 Protein Expression PE/CA-PJ49: vs control
Description: After incubation, cells were washed twice with ice-cold PBS, scraped, pelleted and lysed in RIPA buffer (Pierce) supplemented with protease inhibitor cocktail (Roche) and phosphatase inhibitor (Roche) for 30 min on ice. The lysates were transfered into microcentrifuge tubes and centrifuged at 14,000× g for 5 min at 4 °C followed by sonication (10–15 s × 3). The supernatants were collected into clean microcentrifuge tubes and stored at −80 °C. Lysates protein concentration were quantified by BCA protein assay kit (Thermo Scientific) and aliquots of 50 μg of total cell lysate were used for ELISA assay.
DuoSetR IC ELISA-Human Total p21/CIP1/CDKN1A(: DYC1047-2) was purchased from R&D Systems Inc. and contains the basic components required for the development of sandwich ELISAs to measure human p21 protein also known as CIP1 and CDKN1A in cell lysates. An immobilized capture antibody specifically binds human p21. After washing away unbound material, a biotinylated detection antibody specific for human p21 is used to detect the captured protein, utilizing a standard Streptavidin-HRP format. All experiments were performed in triplicates and absorbance was measured at λ = 450 nm using a Dynex plate reader.
In cancer development and evolution p21 protein might acts as an oncogene or tumor suppressor and for this reason it could be an important player in processes such as the cancer aggressiveness or the response to chemotherapy. In this study, using ELISA assay we analyzed the expression level of p21 in the tumor cells (PE-CA/PJ49) compared to a normal cells (HUVEC).

[3] = test system: PE/CA-PJ49 tumor cells; experiment: Annexin V-FITC/PI apoptosis flow cytometry, tumor cells; settings: 24 h
Description: The apoptosis assay was carried out with the Annexin V-FITC kit using the manufacturer’s (BD Pharmingen) protocol. Treated and untreated 1 × 10^6 cells/mL were resuspended in cold binding buffer and staining simultaneously with 5 μL FITC-Annexin V (green fluorescence) and 5 μL propidium iodide (PI) in the dark, at room temperature for 15 min. Then, 400μL of Annexin V binding buffer was added and 10,000 cells/sample were acquired using a BD Canto II flow cytometer. The analysis was performed using DIVA 6.2 software in order to discriminate viable cells (FITC^−PI^−) from necrotic cells […] and early apoptosis (FITC^+PI^−) from late apoptosis.
Apoptosis can be seen as an efficient method of preventing malignant transformation, as it ensures the removal of cells which present with genetic alterations. Deficient apoptosis can promote the development of cancer, both through the accumulation of cells found during division and the blocking of the removal of cells with high malignant potential genetic variations. The factors which determine the cells to follow one of three possible pathways are not yet known – the start of apoptosis after cellular injury, the repair of the lesion or the continuation of the cellular cycle. Many therapeutical agents have anti-tumoral effects generated by their capacity to activate the apoptotic process. […] The flow cytometric analysis was performed using DIVA 6.2 software and allowed to discriminate viable cells (FITC^−PI^− = Q3) from necrotic cells (FITC^−PI^+ = Q1) and early apoptosis (FITC^+PI^− = Q4) from late apoptosis (FITC^+PI^+ = Q2).

[4] = test system: P21 (CDKN1A) gene expression in HUVEC; experiment: Real-time PCR of CDKN1A (P21) gene, normal cells; settings: 24 h, reference gene HPRT, 2^-ΔΔCt vs control
Description: as §1

## COc1cc(/C=C/C(=O)CC(=O)/C=C/c2ccc(O)c(OC)c2)ccc1O [CRM, Curcumin]
[1]; 15 μM CRM
  n-fold P21 gene expression PE/CA-PJ49: 1.2
[2]; 15 μM CRM
  p21 pg/mL PE/CA-PJ49: 941 pg/mL
  n-fold p21 Protein Expression PE/CA-PJ49: 1.51
[3]; 15 μM CRM
  Early Apoptosis = Q4 (%): 19.1%
  Late Apoptosis = Q2 (%): 9.1%
  Necrosis = Q1 (%): 6.7%
  Total Apoptosis = Q2 + Q4 (%): 28.2%
[3]; Homo sapiens, 15 μM CRM, read-out: Q3 (viable cells, FITC−PI−)
  viability at 15 µM: 65.1%
[4]; 15 μM CRM
  n-fold P21 gene expression HUVEC: 1.39

## Oc1ccc(C=Cc2cc(O)cc(O)c2)cc1 [RSV, 3,5,4′-trihydroxystilbene]
[1]; 40 μM RSV
  n-fold P21 gene expression PE/CA-PJ49: 3.1
[2]; 40 μM RSV
  p21 pg/mL PE/CA-PJ49: 1550 pg/mL
  n-fold p21 Protein Expression PE/CA-PJ49: 2.48
[3]; 40 μM RSV
  Early Apoptosis = Q4 (%): 17.7%
  Late Apoptosis = Q2 (%): 9.5%
  Necrosis = Q1 (%): 5.4%
  Total Apoptosis = Q2 + Q4 (%): 27.2%
[3]; Homo sapiens, 40 μM RSV, read-out: Q3 (viable cells, FITC−PI−)
  viability at 40 µM: 67.4%
[4]; 40 μM RSV
  n-fold P21 gene expression HUVEC: 0.36
